For 86 compounds, XC50 results are on record in ChEMBL document CHEMBL1157539, “Thousands of chemical starting points for antimalarial lead identification” (Nature, 2010).

In this assay the test system is Plasmodium falciparum. In words: GSK_TCMDC: Inhibition of Plasmodium falciparum 3D7 in whole erythrocytes, using parasite LDH activity as an index of growth. Type of assay: functional, organism-based. The settings on record: Plasmodium falciparum, 3D7.

The compound `Cn1cncc1-c1ccc2c(-c3ccsc3)cnc(N)c2c1` showed an XC50 of 850 nM. On to `CCCN(CCC)C(=O)c1cc(C(=O)N[C@@H](Cc2ccccc2)[C@H](O)CNC(C)(C)c2cccc(C(F)(F)F)c2)cc(N2CCCCS2(=O)=O)c1`, for which the XC50 amounted to 36.2 nM.

`Nc1nc(N)c2c(ccc3c2ccn3Cc2ccc(-c3ccccc3)cc2)n1` displayed an XC50 of 48.3 nM.

Take `CC1CN(CCCn2c3ccccc3c3ccc(C(=O)CCCN(C)C)cc32)CC(C)N1` (stereo unspecified): the XC50 turned out to be 809 nM. The figure for `Cc1nc(-c2cccc(C(F)(F)F)c2)n2nc(Nc3ccc(OCCN4CCCC4)cc3)ncc12` is 751 nM; for `COc1cc2ccccc2c(CON2C(=N)N=C(N)NC2(C)C)c1OC` it is 46.4 nM; for `CNC(=O)c1cnc(Nc2ccc(N3CCN(C)CC3)cc2)nc1Nc1ccccc1OC` it is 928 nM. Compound `CCCCN1CCN(c2cc(NS(=O)(=O)c3cccc(C(=O)Nc4ccc(C(F)(F)F)cc4)c3)ccc2OC)CC1` returned an XC50 of 685 nM.

Compound `COc1ccc(-c2nonc2NC(=O)c2ccc(OC(C)C)cc2)cc1OC` came in with an XC50 of 635 nM. Turning to `COc1cccc(Cn2ccc3c4c(N)nc(N)nc4ccc32)c1`, the XC50 was found to be 3.2 nM. The figure for `Fc1ccc2[nH]c(-c3cccc(-c4cccc(CNCc5ccccc5)c4)c3)nc2c1` is 283 nM; for `Oc1ccccc1CNC1CCCCC1NCc1ccccc1O` (stereo unspecified) it is 950 nM.

As for `CCc1ccc(C(=O)Nc2cccc(CN3CCCN(Cc4ccc(O)cc4)CC3)c2)cc1`, the XC50 worked out at 1030 nM.

`Fc1ccc2[nH]c(-c3ccc(-c4ccc(CN5CCN(c6ccncc6)CC5)cc4)cc3)nc2c1`: the XC50 came to 251 nM. Then `c1ccc(CN2CCC(NCc3ccccc3-c3ccc(CNC4CCCC4)cc3)CC2)cc1`, with 912 nM; and `c1ccc(-c2[nH]c3ccccc3c2CN2CCC(N3CCCCC3)CC2)nc1`, with 1210 nM; and `COc1ccc(NC(=O)Nc2cc(C)nc3ccccc23)cc1Cl`, with 688 nM. Then `Cc1[nH]c(C)c(-c2csc3ccccc23)c(=O)c1Cl`, with 1020 nM; and `O=C(Nc1ccc(-c2cccc(-c3nc4ccccc4[nH]3)c2)cc1)Nc1ccsc1`, with 246 nM; and `Cc1cc(OCCN2CCCCC2)ccc1NC(=O)c1cccc2c(=O)n(Cc3ccc(Cl)cc3)cnc12`, with 1060 nM. The figure for `CC(C)CCNc1nc2ccccc2nc1Nc1cccc(C(F)(F)F)c1` is 905 nM; for `O=C1COc2ccc3ccccc3c21` it is 701 nM. In turn, `OC(CNC1CCCCC1)c1ccc(Cl)c(Cl)c1` (stereo unspecified) displayed an XC50 of 698 nM. The figure for `CC1(C)NC(N)=NC(=N)N1OCCCCOc1ccc(Cl)cc1C1CCCCC1` is 3.2 nM. Then `COc1ccc(-c2nc3ccc(C)nc3nc2-c2ccc(OC)cc2)cc1`, with 1110 nM; and `Cc1ccc(/C=C/C(=O)NC2CCC(N3CCC(c4ccccc4C)CC3)CC2)cc1C` (stereo unspecified), with 809 nM. The figure for `CCCCCc1cc(OC(C)=O)c2c(c1)OC(C)(C)C=C2C1=CCN(Cc2ccccc2)CC1` is 926 nM; for `NOCCCCOc1ccc(Cl)cc1` it is 785 nM; for `CNCc1cccc2nc(-c3csc(Cc4cc(Cl)ccc4OCC(C)C)n3)[nH]c12` it is 718 nM.

For `COc1ccc2nc3cc(Cl)ccc3c(NCCNCC(O)CO)c2n1` (stereo unspecified), the XC50 was 152 nM. The figure for `CCCCCC(C)C(C)c1cc(O)c2c(c1)OC(C)(C)CC2c1cc[n+]([O-])cc1` (stereo unspecified) is 499 nM. The figure for `C[C@H](Cc1ccc(OCCCCCOc2ccc(C[C@@H](C)NC[C@H](O)c3cccc(Cl)c3)cc2)cc1)NC[C@H](O)c1cccc(Cl)c1` is 190 nM; for `CCOC(=O)c1ccc(N2CCCCC2)c(NC(=O)C(Cl)(Cl)Cl)c1` it is 849 nM; for `CCC(CCON1C(N)=NC(N)=NC1(C)C)c1ccc(Cl)c(Cl)c1` (stereo unspecified) it is 3.2 nM. Then `O=C(Nc1ccc(S(=O)(=O)NCCCN2CCOCC2)cc1)c1cc(-c2ccccc2)[nH]n1`, with 769 nM; and `CCn1c(-c2nonc2N)nc2c(Cl)ncc(O[C@H](CCN)c3ccccc3F)c21`, with 1460 nM; and `CCN(CC)CCCC(C)N/C(=N\c1ccccc1Br)Nc1ccc(C#N)cc1O` (stereo unspecified), with 1040 nM. As for `N#Cc1ccc(CN2CCC(Oc3ccc(NC(=O)c4ccco4)cc3Cl)C2)cc1` (stereo unspecified), the XC50 amounted to 331 nM. Take `Cc1n[nH]c(C)c1C1CCN(CC2CCC(NC(=O)/C=C/c3ccc(Cl)c(Cl)c3)CC2)CC1` (stereo unspecified): the XC50 stood at 729 nM. The figure for `CC(C)CCNC(=N)Nc1ccc(OCCCOc2ccc(NC(=N)NCCC(C)C)cc2)cc1` is 200 nM; for `c1ccc(Oc2ccc(Nc3ccnc4cc(-c5csc(CNCCN6CCOCC6)n5)ccc34)cc2)cc1` it is 708 nM; for `O=C(Nc1cccc(CN2CCN(Cc3ccc(O)cc3)CC2)c1)c1ccc(-c2ccccc2)cc1` it is 245 nM. `CS(=O)(=O)c1ccc2c(c1)CCN(CCC1CCC(NC(=O)C(=Cc3cccc(C#N)c3)c3ccc(-c4ccccc4)cc3)CC1)CC2` (stereo unspecified) showed an XC50 of 839 nM. The figure for `CN(C)CCOc1ccnc2ccc(NC(=O)Cc3ccc(-c4ccncc4)c4ccccc34)cc12` is 277 nM; for `CCNC(=O)N1CCN(c2nc(-c3ccccc3)nc(COC)c2Cc2ccc(C)cc2)CC1` it is 989 nM.

In turn, `CN(C)c1ccc(-c2csc(C(=O)NCC3CCN(Cc4cccc(C(F)(F)F)c4)C3)c2)cc1` (stereo unspecified) returned an XC50 of 843 nM. Then `Cc1cc2nc(-c3cccc(C(=O)NC4CCN(Cc5ccccc5)CC4)c3)[nH]c2cc1C`, with 828 nM. Then `COc1ccc(NC(=O)/C=C/c2ccccc2Cl)cc1OCCN1CCC(NC2CC2)CC1`, with 842 nM. The figure for `CN1CCN(CCCNCc2cccc(-c3ccc(CNCCc4ccccc4)cc3)c2)CC1` is 781 nM. Compound `COc1ccc(OCc2ccccn2)c(C2CCN(CCCCNC(=O)c3ccc(NC(=O)c4ccc(Cl)cc4)cc3)CC2)c1` displayed an XC50 of 764 nM.

As for `CCc1cn2c3c(cc(C(=O)N[C@@H](Cc4cccc(F)c4)[C@H](O)CNC4CCOCC4)cc13)N(C)S(=O)(=O)CC2`, the XC50 is 68.1 nM.

`Cc1c(CNCCN2CCCCC2)c(C(=O)O)c(C)n1Cc1ccc(Cl)cc1` yielded an XC50 of 416 nM. Then `CC(C)n1cc(CN2CCCC(C(=O)Nc3cccc(-c4cc5ccccc5[nH]4)c3)C2)cn1` (stereo unspecified), with 999 nM; and `CCn1ccc2c(N3CCCC3=O)cc(C(=O)N[C@@H](Cc3ccccc3)[C@H](O)CNC3CCCCC3)cc21`, with 119 nM. Then `O=C(Nc1ccc(-c2ccccc2)cc1)Nc1cccc(Cn2nc(Cl)c(N3CCNCC3)cc2=O)c1`, with 369 nM; and `CNc1ccc(CNCc2ccc(-c3ccc(-c4nc5cc(C(F)(F)F)ccc5[nH]4)s3)cc2)cc1`, with 177 nM; and `Cc1cccc2nc(-c3cccc(-c4cccc(NC(=O)c5cccnc5Cl)c4)c3)[nH]c12`, with 707 nM. Then `CC(C)CCn1c(Sc2ccc([N+](=O)[O-])cc2C(F)(F)F)nnc1-c1ccccc1Cl`, with 919 nM; and `CN(C)c1ccc(CN2CCC(CNC(=O)c3cc(-c4ccccc4F)cs3)C2)cc1` (stereo unspecified), with 911 nM; and `Nc1c2c(nc3ccc(Oc4ccc(Cl)cc4)cc13)CCCC2`, with 972 nM. On to `CCCNCc1c(O)ccc2c(CNCCC)c(O)ccc12`, for which the XC50 came to 597 nM.

In turn, `Cc1cccc2[nH]cc(C3CCN(CCC4CCN(C(=O)/C=C/c5ccc(Cl)c(Cl)c5)CC4)CC3)c12` showed an XC50 of 1220 nM. The figure for `CC1CCC2(CC1)N=C(N)N=C(N)N2OCc1ccc(Br)c2ccccc12` (stereo unspecified) is 216 nM; for `CC(=O)NCCNc1nccc(N2CCc3ncnc(Nc4ccc(OCc5cccc(F)c5)c(Cl)c4)c3C2)n1` it is 129 nM. Then `O=C(Nc1ccc(CN2CCC(c3c[nH]c4ccc(O)cc34)CC2)cc1)c1ccc(-c2ccccc2)cc1`, with 253 nM; and `Cc1cccc2nc(-c3ccc(-c4ccc(CNCc5cccc(N)c5)cc4)cc3)[nH]c12`, with 565 nM. The figure for `O=C(Nc1cc(C(F)(F)F)cc(C(F)(F)F)c1)c1cc(C(F)(F)F)cc(C(F)(F)F)c1` is 872 nM; for `CNC(=O)c1cnc(Nc2ccc(OCC(O)CN(C)C)cc2)nc1Nc1cccc(Br)c1` (stereo unspecified) it is 121 nM. The compound `CC(C)(C)NC(=O)c1ccc(Oc2ccc(OC(F)(F)F)cc2)c(NC(=O)C(C)(C)C)c1` gave an XC50 of 977 nM. Turning to `Cc1cc(-c2ccc(CN3Cc4ccccc4C3)cc2)ccc1S(=O)(=O)NCCN1CCCC1`, the XC50 is 966 nM.

`CS(=O)(=O)c1ccc2[nH]c(-c3cc(-c4ccc(OCCN5CCOCC5)cc4)cnc3N)nc2c1` displayed an XC50 of 1060 nM.

In turn, `CC(C)NCc1ccc(-c2ccc(CN3CCCC(c4ccccc4)C3)cc2)c(C(=O)NCC2CCCCC2)c1` (stereo unspecified) returned an XC50 of 722 nM. Then `Cc1nc(Nc2cc(Cl)ccc2O)nc(Nc2cc(Cl)ccc2O)c1[N+](=O)[O-]`, with 29.4 nM; and `CC(C)c1ccc(CN2CCC(CNC(=O)c3cc(-c4cccc(C(F)(F)F)c4)cs3)C2)cc1` (stereo unspecified), with 914 nM. Then `NS(=O)(=O)c1ccccc1Nc1nc(Nc2ccc(N3CCOCC3)cc2)nc2c1CCC2`, with 667 nM. Then `CS(=O)(=O)c1ccc2c(c1)CCN(CCC1CCC(NC(=O)c3cc4cccc(Br)c4[nH]3)CC1)CC2` (stereo unspecified), with 1040 nM; and `CCCCCN1CCCC(NS(=O)(=O)c2cccc(C(=O)Nc3cccc(C(F)(F)F)c3)c2)C1` (stereo unspecified), with 1070 nM; and `COc1cc(NC(=O)/C=C/c2ccccc2Cl)cc(OCCN2CCC(O)(c3ccccc3)CC2)c1`, with 174 nM. In turn, `NCCCN(Cc1ccc(Cl)c(Cl)c1)C(=O)Nc1ccc(Cl)c(Cl)c1` gave an XC50 of 898 nM. Consider `COc1cccc(OC)c1C(=O)N1CCC2(CC1)C(=O)N(CC(=O)NC1CCCCC1)CN2c1ccccc1`, for which the XC50 was found to be 953 nM.

Take `COc1ccc(CN2CCCC(OC(c3ccc(F)cc3)c3ccc(F)cc3)C2)c(O)c1` (stereo unspecified): the XC50 amounted to 607 nM. The figure for `COc1cc(C(=O)NCCCN2CCN(c3cccc(Cl)c3)CC2)ccc1-c1nc2cc(Cl)c(F)cc2[nH]1` is 1020 nM; for `O=C(NCCCCN1CCC(c2ccc3c(c2OCc2ccncc2)CCCC3)CC1)c1ccc(-c2ccc(C(F)(F)F)cc2)cc1` it is 168 nM; for `O=C(Nc1nccs1)c1cn(-c2ccccc2)nc1-c1ccc(Cl)s1` it is 970 nM. Then `COc1ccc(CCn2c(=N)c(C(=O)NCc3ccccc3)cc3c(=O)n4cccc(C)c4nc32)cc1`, with 339 nM; and `COc1ccc(CC(=O)NC(CCCN2CCC3(CC2)OCc2ccccc23)c2ccc(Cl)c(Cl)c2)cc1` (stereo unspecified), with 1130 nM.
